Reference: publication PMC7161086 (Peptides, 2019)

Experiments:
[1] = system: Acinetobacter baumannii ATCC 19606; assay: MIC, additional antimicrobial activities; format: cell-based
[2] = system: Staphylococcus aureus JE2 MRSA; assay: MIC assay, broth microdilution; format: cell-based
[3] = system: Escherichia coli ATCC 25922; assay: MIC, additional antimicrobial activities; format: cell-based
[4] = system: Candida albicans ATCC 90028; assay: MIC, additional antimicrobial activities; format: cell-based
[5] = system: human red blood cells; format: cell-based
[6] = system: Staphylococcus aureus ATCC 43300 MRSA; assay: MIC, additional antimicrobial activities; format: cell-based; conditions: for Minimal inhibitory concentration (MIC) Sa: Staphylococcus aureus ATCC 43300 MRSA
[7] = system: Cryptococcus neoformans var. grubii H99 ATCC 20882; assay: MIC, additional antimicrobial activities; format: cell-based
[8] = system: Klebsiella pneumoniae ATCC 700603
[9] = system: Escherichia coli K12; assay: MIC assay, broth microdilution; format: cell-based; conditions: 37 °C, 24 h, MHB
[10] = system: Psedomonas aeruginosa ATCC 27853; assay: MIC, additional antimicrobial activities; format: cell-based
[11] = system: HEK-293 human embryonic kidney cells (ATCC CRL-1573); assay: Cytotoxicity, resazurin test; format: cell-based; conditions: performed by CO-ADD

| Substance | Minimal inhibitory concentration (MIC) Ab [1] [µg/mL] | Minimal inhibitory concentration (MIC) Sa ([2]; Staphylococcus aureus JE2 MRSA, 37 °C, 24 h, MHB) [µg/mL] | fold increase in activity (decrease of MIC) against S. aureus ([2]; relative to Cit 1.1) [fold] | Minimal inhibitory concentration (MIC) Ec [3] [µg/mL] | Minimal inhibitory concentration (MIC) Ca [4] [µg/mL] | HC50 Human red blood cells [5] [µg/mL] | Minimal inhibitory concentration (MIC) Sa [6] [µg/mL] | fold increase in activity (decrease of MIC) against MRSA strains ([6]; relative to Cit 1.1, MRSA strains JE2 and ATCC 43300) [fold] | Minimal inhibitory concentration (MIC) Cn [7] [µg/mL] | Minimal inhibitory concentration (MIC) Kp [8] [µg/mL] | Minimal inhibitory concentration (MIC) Ec [9] [µg/mL] | Minimal inhibitory concentration (MIC) Pa [10] [µg/mL] | IC50 HEK-293 [11] [µg/mL] |
| --- | --- | --- | --- | --- | --- | --- | --- | --- | --- | --- | --- | --- | --- |
| GLFDVIRRVASVIGGL [AMP-012] | 32 | 16 | 2 | 32 | 16 | 18.2 | 16 | 2 | 16 | > 32 | 32 | > 32 | – |
| GLFDVI(Orn)(Orn)VASVIGGL [AMP-006] | > 32 | – | – | > 32 | > 32 | – | 32 | – | 32 | > 32 | – | > 32 | > 32 |
